Test results published in US9259433B2, “Synergistic antiviral compositions comprising a viral attachment inhibitor, an integration inhibitor, and a proviral transcription inhibitor, and their use” (priority 2007, dated 2016).
pIC50: −log10 of the molar value. Where “and” joins values, the source holds several entries; their conditions need not be identical. Identical values can stand only once. Like-named read-outs stand apart in the source and are kept apart here.

Assays:
H9 cells = type: cell-based; conditions: human, 192 h
Experimental: A series of drug concentrations ranging from 1.25 μg/ml to 160 μg/ml were used for testing the cytotoxicity of M522 and M532 in H9 cells, using the MTT assay to determine the viability of H9 cells in culture. […] In fact, the drug-protected, HIV-infected H9 cells appeared to be morphologically identical to the uninfected control cells (6).
(§1) Similarly, PBMC cells were isolated from a healthy blood sample and these cells were stimulated by PHA and IL-2. PBMC (5×10^6/ml) were infected with HIV-1RTMF. The cells were treated with three combinations of drugs, M522, Gen-1 and G4N. Fresh media and drugs were added after 4 days with drug concentrations 0, 1.25, 2.5, 5, 10, 20, 40 and 80 μM. The inhibition for HIV-1 by these combinations of drugs was also examined by using p24 assay after 8 days. […] In comparison, cytotoxicity for the three drugs combined to H9 cells was also analyzed using an MTT assay.

HIV-1 integrase = HIV-1 integrase (Human immunodeficiency virus type 1 group M subtype B, UniProt P04585); assay: HIV-1 integrase catalytic activity of 3'-joining to the target DNA; type: biochemical
Source text: (§2) a. Salvia genus of Labiaceae family contains approximately 1000 species. 78 of these are distributed in different regions in China. […] An INi search was established based on an assay-guided purification procedure utilizing different concentrations of methanol, propanol, a two-layer extraction system (low salt water/butanol), and a high resolution inverted phase HPLC (Sperisorb OD S-2).

HIV = HIV entry in H9 cells; type: cell-based; conditions: compound by itself
Source text: as §2

reverse transcriptase = target: T1, reverse transcriptase (Human immunodeficiency virus type 1 group M subtype B, UniProt P04585); assay: Reverse transcriptase activity and viral DNA levels in infected cells; type: cell-based, HIV
T1 construct: endogenous in cells; host or cells: HIV-infected cells (H9 cells named in the same paragraph)
Source text: as §2

HIV-1 [1] = assay: Acute HIV-1 infection of H9 cells; type: cell-based; conditions: Human immunodeficiency virus 1
Source text: as §2

[2] = test system: HIV-1RTMF (AZT-resistant virus); assay: HIV replication in infected H9 cells, HIV/p24 monoclonal antibody assay; type: cell-based
Experimental: (§3) The inhibitory effect of M522 and M532 against HIV replication was further examined using 5 different strains of HIV-1, drug resistant and primary isolates in the presence of a variety of drug concentrations in infected H9 cells.
A series of drug concentrations ranging from 1.25 μg/ml to 160 μg/ml were used for testing the cytotoxicity of M522 and M532 in H9 cells, using the MTT assay to determine the viability of H9 cells in culture.

HIV-1IIIBA17 variant = assay: as above; type: cell-based; conditions: Human immunodeficiency virus 1, H9
Source text: as §3

HIV-1IIIB = assay: as above; type: cell-based; conditions: Human immunodeficiency virus 1
Source text: as §3

[3] = test system: HIV-1L1OR/M461/L63P.V82T/184V (protease inhibitor resistant virus); assay: as above; type: cell-based; conditions: Human immunodeficiency virus 1, H9
Source text: as §3

HIV-1MN = assay: as above; type: cell-based; conditions: Human immunodeficiency virus 1
Source text: as §3

[4] = target: deletion mutant HIV-1 integrase (IN^50-212) (Human immunodeficiency virus type 1 group M subtype B, UniProt P04585); assay: Disintegration assay; type: biochemical; conditions: IN^50-212 core domain; equal efficacy with wild type
Experimental: (§4) To determine whether M522 and M532 are acting against the catalytic core domain specifically, disintegration assay was tested using deletion mutant IN containing only the core domain of HIV integrase. Such deletion mutant is defective for normal integration, but it is capable of catalyzing a reversal of the forward reaction, termed “disintegration”. The disintegration reaction can be assayed by using a deletion mutant HIV-1 integrase (IN^50-212) which lacks both the amino terminal zinc binding and the carboxyl terminal DNA binding domains but remains active in this assay, whereas such truncated IN loses activity in the 3′-processing and joining (strand transfer) assays. So, disintegration assay can be used to probe the site of drug-enzyme binding.

[5] = target: wild type HIV-1 integrase (Human immunodeficiency virus type 1 group M subtype B, UniProt P04585); assay: Disintegration assay; type: biochemical; conditions: equal efficacy with deletion mutant
Experimental: as §4

HIV-1RTMF = assay: Drug combination study in H9 cells infected with HIV-1RTMF, p24 assay; type: cell-based
Source text: We tested drug combinations against two different cells infected with laboratory strain of HIV-1 RTMF. For these drug combinational studies, both the H9 cells and human PBMC have been used. We first tested how our inhibitors affect one specific strain of HIV which is resistant to drug against RT (HIV-1RTMF). Briefly H9 (1×10^5/ml) were infected with HIV-1RTMF strain with a multiplicity of infection of 0.1. These cells were further tested with three drugs, M522, Gen-1 and G4N, either in combination or separately (8, 10, 21B). After 4-day incubation at 37° C., H9 cells were subcultured with fresh culture medium containing appropriate concentrations 0, 1.25, 2.5, 5, 10, 20, 40 and 80 μM of each of the drugs, or of a combination of all three of the drugs, each at the indicated concentration. The inhibition for HIV-1 by these combinations of drugs was examined using p24 assay after 8 days.
as §1

[6] = test system: HIV Sp1 enhancer sequence; assay: Binding to Sp1 enhancer sequence by ethidium displacement; conditions: excitation 517 nm, emission 596 nm
Source text: The mechanism underlying the antiviral action for NDGA derivatives was largely unknown before 1995. In 1995, Huang's group first reported a molecular study on 3′-O-methyl NDGA (FIG. 11, Mal 4)(15) isolated from creosote bush (Larrea tridentate) (16,3). […] NDGA derivatives interfere with the binding of transcription factor Sp1 to the promoter of the HIV proviral template. The target of Mal.4 is mapped to nucleotides −87 to −40, the Sp1 binding sites of the HIV long terminal repeat (LTR). […] However, large preparations of such NDGA derivatives from plant sources are labor intensive and costly. In anticipation of the possible clinical use of lignans in controlling Sp1-regulated viral and tumor growth in humans, nine different methylated NDGAs and several water soluble NDGA derivatives were synthesized chemically in large quantities with low cost (17, 18, 26, FIG. 11). Unsubstituted NDGA was used as the parent substrate. […]

[7] = test system: acyclovir-resistant strains of HSV-1; assay: Inhibition of acyclovir-resistant strains of HSV-1; type: cell-based
Source text: Because the inhibitory mechanism of this class of compounds is completely distinct from the antiviral mechanism of nucleoside analogue agents, there is little possibility of cross-resistance between these two classes of drugs.

HSV-1 = assay: Dorsal cutaneous guinea pig model of HSV-1 infection; type: in vivo
Experimental: M4N and G4N were tested for their abilities to prevent HSV-1 infection in two animal model systems. The dorsal cutaneous guinea pig model system is a well-established model for HSV-1 infection that has been used in several studies to comparatively assess the potential efficacy of different topical formulations for treatment of herpes labialis. Straten M V, Carrasco D, Lee P, Tyring S K, Arch. Dermatol 137, 1232-1235 2001.

HSV-2 = assay: Mouse vaginal model of HSV-2 infection; type: in vivo, female CF-1 mice
Source text: P4N was also found to be quite effective.

[8] = Topical toxicity in guinea pigs; type: in vivo
HIV-1 [9] = conditions: read-out: inhibited HIV replication (IC90); FIG. 5
HIV-1 [10] = test system: HIV-1
[11] = mouse, in vivo
Source text: The efficacies of M4N and G4N against HSV-2 in a mouse vaginal model system were also examined. Progestin-treated female CF-1 mice (10 per group) were infected with HSV-2 in the absence or presence of G4N (in PBS), P4N (in PBS), or M4N in Vaseline (23). At the end of three days, the vaginal lavages were collected from the washings of the vagina regions. The status of the vaginal HSV-2 infection and replication were examined by their cytopathic effects on cultured human foreskin fibroblast cells. Monitoring and scoring were carried out by three persons independently.

In the case of O=C(/C=C/c1ccc(O)c2c1[C@H](C(=O)O)[C@@H](c1ccc(O)c(O)c1)O2)O[C@H](Cc1ccc(O)c(O)c1)C(=O)O [M522, lithospermic acid], the “CC100 (highest concentration tested, cells remained viable)” value (H9 cells) was 160 µg/mL, the pIC50 (HIV-1 integrase) was 6.32 and the “prevention of HIV entry” value (HIV) was “Neither M522 nor M532 by itself prevents HIV entry”. The “levels of intracellular strong stop and full-length viral DNA” value (reverse transcriptase; following drug treatment) was “remained unchanged”, the “inhibition of reverse transcriptase activity” value (reverse transcriptase; infected cells) was “no inhibition of reverse transcriptase activity” and the pIC50 (HIV-1 [1]) was 5.70. The syncytia formation ([2]; H9 cells infected with HIV-1RTMF in the presence of drug) was “syncytia formation was prevented”, the IC50 ([2]; Human immunodeficiency virus 1, H9) was 2.5 µg/mL and 4.6 µM and the IC50 (HIV-1IIIBA17 variant) was 1.1 µg/mL and 2 µM. The IC50 (HIV-1IIIB) was 11 µg/mL and 20.4 µM, the IC50 [3] was 6 µg/mL and 11.1 µM and the IC50 (HIV-1MN) was 16.7 µM and 9 µg/mL. For the same compound, the inhibition of disintegration [4] was “inhibited”, the inhibition of disintegration [5] was “inhibited” and the pIC50 (HIV-1RTMF; Human immunodeficiency virus 1, H9, 192 h) was 5.22 to 5.40.

In the case of C[C@H](Cc1ccc(OC(=O)CN(C)C)c(OC(=O)CN(C)C)c1)[C@@H](C)Cc1ccc(OC(=O)CN(C)C)c(OC(=O)CN(C)C)c1 [G4N, meso-1,4-bis[3,4-(dimethylaminoacetoxy)phenyl]-(2R,3S)dimethylbutane], the “apparent equilibrium binding constant (Kapp)” value [6] was 3e+06 M⁻¹, the “efficacy against acyclovir-resistant strains” value [7] was “no cross-resistance” and the “response to treatment (visual assessment)” value (shortened to “response to treatment”) (HSV-1; 5 μM) was “semi-effective”. For the same compound, the “response to treatment” value (HSV-1; 10 μM) was “more effective”, the “response to treatment” value (HSV-1; 150 μM) was “extremely effective” and the “HSV-1 induced cutaneous lesion formation and viral shedding” value (HSV-1; guinea pig, in vivo) was “effectively inhibited”. The average score (HSV-2; 0.1 mM) was 0.5, the infection (HSV-2; 0.1 mM) was about 12.5 % infection and the animals infected (HSV-2; 0.1 mM, 10 mice per group, day 3 vaginal lavage) was 1 out of 10. For the same compound, the animals infected (HSV-2; 10 mM, 10 mice per group) was “no infections detected”, the animals infected (HSV-2; 100 mM) was “no infections detected” and the “toxicity or dermal irritation” value ([8]; highest soluble concentrations (150 mM)) was “no evidence of toxicity or dermal irritation”. For the same compound, the toxicity ([8]; topical application for six days, up to 50 mM) was “no evidence of toxicity” and the pIC50 (HIV-1RTMF; H9 cells, p24 assay after 8 days, for the combination, this concentration of each drug, read-out: IC50) was 4.74.

In the case of acetylated Tieghemelin [oAc-Gen-1], the IC90 (HIV-1 [9]) was about 10 µM, the “HIV-1 entry and infection in CD4+ cells” value (HIV-1 [10]; preincubation of drug with CD4+ cells) was “did not prevent HIV-1 entry and infection” and the “infectivity of HIV-1” value (HIV-1 [10]; preincubation of drug with HIV-1 virus) was “totally inactivated the infectivity”.

With COc1ccc(C[C@@H](C)[C@@H](C)Cc2ccc(OC)c(OC)c2)cc1OC [M4N, tetra-O-methyl NDGA] the “efficacy against acyclovir-resistant strains” value [7] was “retains complete efficacy”, the “infection in the other 4 mice” value (HSV-2; 20 mg/ml in Vaseline) was “very little infection” and the “mice fully infected, out of 8” value (HSV-2; 20 mg/ml in Vaseline) was 4. For the same compound, the “score of the fully infected mice” value (HSV-2; 20 mg/ml in Vaseline) was 3-4 and the toxicity [11] was “no toxicity”.
